According to ChEMBL document CHEMBL1133414, “Bifunctional alkylating agents derived from duocarmycin SA: potent antitumor activity with altered sequence selectivity” (Bioorg Med Chem Lett, 2000):

What follows are molecules tested on L1210 (assay: In vitro cytotoxicity against L1210 cell line). Details: Mus musculus.
Assay type: functional, cell-based

SMILES | IC50 [nM]
COC(=O)c1cc2c([nH]1)C(=O)C=C1N(C(=O)c3cc4cc(OC)c(OC)c(OC)c4[nH]3)C[C@@H]3C[C@@]123 | 0.1
COC(=O)c1cc2c([nH]1)C(=O)C=C1N(C(=O)c3cc4c([nH]3)C(=O)C=C3N(C(=O)OC(C)(C)C)C[C@H]5C[C@]345)C[C@@H]3C[C@@]123 | 0.04
COC(=O)c1cc2c([nH]1)C(=O)C=C1N(C(=O)c3cc4c([nH]3)C(=O)C=C3N(C(=O)OC(C)(C)C)C[C@@H]5C[C@@]345)C[C@@H]3C[C@@]123 | 0.05
COC(=O)c1cc2c([nH]1)C(=O)C=C1N(C(=O)c3cc4cc(OC)c(OC)c(OC)c4[nH]3)C[C@H]3C[C@]123 [DUOCARMYCIN] | 0.01
COC(=O)c1cc2c([nH]1)C(=O)C=C1N(C(=O)c3cc4c([nH]3)C(=O)C=C3N(C(=O)OC(C)(C)C)C[C@@H]5C[C@@]345)C[C@H]3C[C@]123 (mixture of isomers) | 0.005
COC(=O)c1cc2c([nH]1)C(=O)C=C1N(C(=O)c3cc4c([nH]3)C(=O)C=C3N(C(=O)OC(C)(C)C)C[C@H]5C[C@]345)C[C@H]3C[C@]123 | 0.003
